Test results as given in US11866460B2 (priority 2015, dated 2024).
≈ marks a conversion by molar mass, not a printed value. Where “and” joins values, the source holds several entries; their conditions need not be identical. Identical values can stand only once. Like-named read-outs stand apart in the source and are kept apart here. Where a SMILES comes first, the peptide text is derived from it. Where no end group is shown, it is not given here.

Assays:
HIV-1US/92/727 = details: human PBMCs
HSV-1 = assay: microbe, parasite or virus in culture; details: Human alphaherpesvirus 1, Vero
Clostridium difficile = assay: microbe, parasite or virus in culture; format: cell-based; details: Clostridioides difficile, 48 h
Propionibacterium acnes = assay: microbe, parasite or virus in culture; format: cell-based; details: Cutibacterium acnes, 48 h
Haemophilus influenzae = assay: microbe, parasite or virus in culture; format: cell-based
in vitro [1] = details: African green monkey, CC50
ZIKV FSS 13025 [2] = details: read-out: IC50, yield reduction; Vero cells, day 3
ZIKV FSS 13025 [3] = details: read-out: IC50 (PRNT50), plaque reduction; Vero cells, day 4
HIV-1RF = format: cell-based
[4] = tested on: Streptococcus pneumoniae (PSSP)
in vitro [5] = details: Lactobacillus crispatus
[6] = tested on: Enterococcus faecium (VRE)
in vitro [7] = details: dog
[8] = tested on: Staphylococcus aureus (MSSA)
[9] = tested on: Bacillus anthracis Sterne
JUNV Candid #1 = details: 0 h
VACV NYCBH = details: 0 h
[10] = tested on: Lactobacillus acidophilus
in vitro [11] = details: Lactobacillus jensenii
in vitro [12] = details: Lactobacillus acidophilus
[13] = tested on: aerobic Gram-positive bacterial isolates (S. aureus, enterococci, streptococci, and B. anthracis)
DENV-1 PRS41393 = details: -1 PRS41393, 0 h
[14] = tested on: Enterococcus faecalis (VSE)
CHIKV 181/25 = details: 0 h
[15] = tested on: Streptococcus pneumoniae (PRSP)
[16] = tested on: Vero cells, erythrocyte, epithelial and endometrial cell lines
[17] = tested on: panel of enveloped viruses (DENV, JEV, YFV, CHIKV and others); details: panel of enveloped viruses (, JEV, YFV, CHIKV and others)
VEEV TC-83 = details: 0 h
in vitro [18] = details: human, TC50
Vero cells = details: African green monkey
[19] = tested on: Enterococcus faecalis (VRE)
[20] = 0.01 μg/mL during exposure, Day 3
[21] = 0.01 μg/mL during exposure, Day 6
[22] = 0.1 μg/mL during exposure, Day 3
[23] = 0.1 μg/mL during exposure, Day 6
[24] = 10 μg/mL during exposure, Day 3
[25] = 10 μg/mL during exposure, Day 6
[26] = 100 μg/mL during exposure, Day 3
[27] = 100 μg/mL during exposure, Day 6
[28] = 1000 μg/mL during exposure, Day 3
[29] = 1000 μg/mL during exposure, Day 6

Molecule: Cc1cn([C@H]2C[C@H](N=[N+]=[N-])[C@@H](CO)O2)c(=O)[nH]c1=O [AZT]
- TI (TC50/EC50) (HIV-1US/92/727): >342.5
- EC50 (HIV-1US/92/727; 7 days): 0.0029 µM and 0.00292 µM
- CC50 (human PBMCs): > 1 µM

Molecule: Nc1nc2c(ncn2COCCO)c(=O)[nH]1 [Acyclovir]
- EC50 (HSV-1): 2.82 µM

Molecule: CCC[C@@H]1C[C@@H](C(=O)N[C@@H]([C@H]2O[C@H](SC)[C@H](O)[C@@H](O)[C@H]2O)[C@H](C)Cl)N(C)C1 [Clindamycin]
- MIC (Clostridium difficile): 1 mg/L (≈ 2.35 µM)
- MIC (Propionibacterium acnes): ≤ 0.06 mg/L
- MIC (Haemophilus influenzae): 4 mg/L (≈ 9.41 µM)

Molecule: CC(C)C[C@@H](NC(=O)[C@@H](CCCCN)NC(=O)[C@@H](CO)NC(=O)[C@@H](CCC(N)=O)NC(=O)[C@@H](CC(C)C)NC(=O)[C@@H](Cc1c[nH]c2ccccc12)NC(=O)[C@H](NC(=O)[C@@H](Cc1c[nH]c2ccccc12)NC(=O)[C@H](NC(=O)[C@@H](CC(=O)O)NC(=O)[C@@H](CCCNC(=N)N)NC(=O)[C@@H](CC(C)C)NC(=O)[C@@H](Cc1c[nH]c2ccccc12)NC(=O)[C@@H](CO)NC(=O)CNC(=O)[C@H](N)CO)C(C)C)[C@H](C)O)C(=O)O [TSG001 D-isomer] (HELM PEPTIDE1{[dS].G.[dS].[dW].[dL].[dR].[dD].[dV].[dW].[dT].[dW].[dL].[dQ].[dS].[dK].[dL]}$$$$V2.0; N-terminus and C-terminus assumed)
- CC50 (in vitro [1]): 11.7 µM
- IC50 (ZIKV FSS 13025 [2]): 0.646 µM
- IC50 (ZIKV FSS 13025 [3]): 0.49 µM

Molecule: Nonoxynol-9 [Nonoxynol 9]
- Log Reduction in Virus Titer (HIV-1RF; [20]): 0.3 log
- TCID50 Sample - Virus (HIV-1RF; [20]): 5
- Log Reduction in Virus Titer (HIV-1RF; [21]): 0.5 log
- TCID50 Sample - Virus (HIV-1RF; [21]): 6
- Log Reduction in Virus Titer (HIV-1RF; [22]): 0.3 log
- TCID50 Sample - Virus (HIV-1RF; [22]): 5
- Log Reduction in Virus Titer (HIV-1RF; [23]): 0.7 log
- TCID50 Sample - Virus (HIV-1RF; [23]): 5.8
- Log Reduction in Virus Titer (HIV-1RF; 1 μg/mL during exposure, Day 3): 0.3 log
- TCID50 Sample - Virus (HIV-1RF; 1 μg/mL during exposure, Day 3): 5
- Log Reduction in Virus Titer (HIV-1RF; 1 μg/mL during exposure, Day 6): 0 log
- TCID50 Sample - Virus (HIV-1RF; 1 μg/mL during exposure, Day 6): ≥6.6
- Log Reduction in Virus Titer (HIV-1RF; [24]): 0 log
- TCID50 Sample - Virus (HIV-1RF; [24]): 5.3
- Log Reduction in Virus Titer (HIV-1RF; [25]): 0 log
- TCID50 Sample - Virus (HIV-1RF; [25]): ≥6.6
- Log Reduction in Virus Titer (HIV-1RF; [26]): ≥3.3 log
- TCID50 Sample - Virus (HIV-1RF; [26]): ≤2.0
- Log Reduction in Virus Titer (HIV-1RF; [27]): 2.9 log
- TCID50 Sample - Virus (HIV-1RF; [27]): 3.6
- Log Reduction in Virus Titer (HIV-1RF; [28]): ≥2.8 log
- TCID50 Sample - Virus (HIV-1RF; [28]): ≤2.5
- Log Reduction in Virus Titer (HIV-1RF; [29]): ≥2.7 log
- TCID50 Sample - Virus (HIV-1RF; [29]): ≤3.8
- TC50 (Ca Ski cells): 61.3 mg/L
- TC50 (HEC1A cells): 62.9 mg/L
- TC50 (Caco-2 cells): 55.1 mg/L
- TC50 (ME180 cells): 74.0 mg/L

Molecule: SGSWLRDVWTWLQSKL [TSG001]
- MIC [4]: 8 µM
- CC50 (in vitro [5]): > 50 µM
- MIC [6]: 2 µM
- TC50 (Lactobacillus jensenii): non-toxic
- CC50 (in vitro [7]): > 200 µM
- MIC [8]: 2 µM
- MIC [9]: 1 µM
- EC50 (Marburg virus (MARV)): 0.637 µM
- MHC (human erythrocyte cells): 50 µM
- EC50 (JUNV Candid #1): > 75 µM
- EC50 (VACV NYCBH): > 12.5 µM
- MIC (Streptococcus agalactiae): 8 µM
- TI (TC50/EC50) (HIV-1US/92/727): 8.93
- TC50 [10]: non-toxic
- EC50 (Ebola virus (EBOV)): 0.934 µM
- CC50 (in vitro [11]): > 50 µM
- CC50 (in vitro [12]): > 50 µM
- MICs, range over isolates [13]: 2 to 16 µg/mL
- MIC (Streptococcus salivarius): 4 µM
- EC50 (DENV-1 PRS41393): 3.42 µM
- MIC [14]: 2 µM
- EC50 (CHIKV 181/25): 2.24 µM
- MIC [15]: 8 µM
- cytotoxicity [16]: minimal cytotoxicity
- EC50 [17]: < 3 µM
- TC50 (Lactobacillus crispatus): non-toxic
- EC50 (VEEV TC-83): > 12.5 µM
- CC50 (in vitro [18]): 37 µM
- MIC (Streptococcus pyogenes): 4 µM
- CC50 (ME180 cells; human): 37 µM
- CC50 (Vero cells): 153 µM
- MIC [19]: 4 µM
